Tests used:
[1] = system: isolated, cultured human endothelial cells; assay: Endostatin responsiveness of isolated, cultured human endothelial cells; format: cell-based
[2] = system: VEGF-stimulated endothelial vessel formation by aortic endothelium; assay: Aortic ring explant assay of endothelial vessel morphogenesis; format: cell-based; details: aortae of wild type mice
From the text: The results described above were extended using an aortic ring explant assay of endothelial vessel morphogenesis. […] The more rapid and extensive growth in E-selectin deficient aortae is therefore consistent with the hypothesis that E-selectin is required for endostatin activity.

[3] = system: tumor growth; details: mouse model; cited from earlier work
[4] = system: bFGF-stimulated corneal angiogenesis; assay: Corneal angiogenesis assay; format: in vivo, mice; details: delivered by intraperitoneal osmotic pump
From the text: The effect of endostatin on bFGF-stimulated corneal angiogenesis was examined in wild type and E-selectin deficient mice.

## tumor necrosis factor-alpha
[1]; isolated cultured human endothelial cells, even in the presence of E-selectin
  effect on endostatin responsiveness: appears to block and/or prevent endostatin responsiveness

## endostatin
[2]
  effect on vessel formation: vessel formation was inhibited
[3]
  effect on tumor growth: dramatic reduction in tumor growth
[4]; E-selectin deficient mice
  effect on FGF-stimulated corneal angiogenesis: not in the E-selectin deficient mice
[4]; wild type mice
  effect on FGF-stimulated corneal angiogenesis: inhibited FGF-stimulated angiogenesis

B1: E-selectin (protein, UniProt P16581 22-610, looked up)
E-selectin: WSYNTSTEAMTYDEASAYCQQRYTHLVAIQNKEEIEYLNSILSYSPSYYWIGIRKVNNVWVWVGTQKPLTEEAKNWAPGEPNNRQKDEDCVEIYIKREKDVGMWNDERCSKKKLALCYTAACTNTSCSGHGECVETINNYTCKCDPGFSGLKCEQIVNCTALESPEHGSLVCSHPLGNFSYNSSCSISCDRGYLPSSMETMQCMSSGEWSAPIPACNVVECDAVTNPANGFVECFQNPGSFPWNTTCTFDCEEGFELMGAQSLQCTSSGNWDNEKPTCKAVTCRAVRQPQNGSVRCSHSPAGEFTFKSSCNFTCEEGFMLQGPAQVECTTQGQWTQQIPVCEAFQCTALSNPERGYMNCLPSASGSFRYGSSCEFSCEQGFVLKGSKRLQCGPTGEWDNEKPTCEAVRCDAVHQPPKGLVRCAHSPIGEFTYKSSCAFSCEEGFELHGSTQLECTSQGQWTEEVPSCQVVKCSSLAVPGKINMSCSGEPVFGTVCKFACPEGWTLNGSAARTCGATGHWSGLLPTCEAPTESNIPLVAGLSAAGLSLLTLAPFLLWLRKCLRKAKKFVPASSCQSLESDGSYQKPSYIL
notes: a cell surface glycoprotein expressed by the endothelium
[1]; isolated, cultured human endothelial cells
  effect on endostatin responsiveness: can be sufficient to confer endostatin responsiveness

Reference: patent US20020187123A1, “Therapeutic compositions and methods for the inhibition of angiogenesis” (priority 2001, published 2002)
